From patent publication US4562190A, “Benzothiazolone derivatives, processes for preparation thereof and pharmaceutical compositions comprising the same” (Fujisawa Pharmaceutical Co., Ltd., priority 1983, dated 1985)
Where two headings read alike, the source gives them in different places.

Assays:
[1] = tested on: blood pressure; test: Antihypertensive activity (DOCA-treated, uninephrectomized rats, oral); assay type: in vivo, male Wistar rats; conditions: dose 1.0 mg/kg, DOCA/saline uninephrectomized rats, mean blood pressure 150-200 mmHg
Experimental: Five-week old male Wistar rats were uninephrectomized under anesthesia. Deoxycorticosterone acetate (DOCA) (30 mg/kg), suspended in peanut oil, was injected subcutaneously twice a week and 1% saline was substituted for the drinking water. Animals with mean blood pressure 150-200 mmHg were used for experiment between 5 and 7 weeks after surgery.
The test compound was administered orally. Blood pressure was measured at the femoral artery by means of a pressure transducer and recorded as electrically integrated values of mean arterial pressure.

[2] = tested on: left ventricular pressure (dp/dt max) and heart rate; test: Cardiotonic activity (anesthetized dogs, i.v.); assay type: in vivo, Mongrel dogs; conditions: dosage 1 mg/kg (printed "1."), injected into femoral vein; pentobarbital-anesthetized dogs; vs predosing period
Experimental: Mongrel dogs of either sex were anesthetized with sodium pentobarbital, 35 mg/kg, i.p.. The animals were allowed to breathe spontaneously. The left carotid artery was isolated and a catheter (USCI, #8F) filled with heparinized saline was inserted and advanced into the left ventricle. The catheter was connected to a pressure transducer (Nihonkohden, MPU-0.5A) to measure the left ventricular pressure, from which dp/dt max was derived by analog computing. To measure the systemic blood pressure the left femoral artery was cannulated. The blood pressure pulses was used to trigger a heart rate meter. Another catheter was positioned in the vena cave through right femoral vein for injection of drug. Systemic blood pressure, left ventricular pressure, dp/dt max and heart rate were recorded simultaneously on a polygram (Nihonkohden, RJG-4008).
Test compound was dissolved in dimethyl sulfoxide (0.04 ml/kg) and injected into the femoral vein. The parameters after dosing were compared with those during the predosing period.
Test results were represented in terms of percentage of dp/dt max changes (dp/dt M.C.) and percentage of heart rate changes (H.R.C.) calculated by following formulae. [formula]

[3] = tested on: platelet aggregation; test: Inhibitory activity on platelet aggregation; assay type: cell-based; conditions: Oryctolagus cuniculus, rabbit platelet rich plasma, 37° C.
Experimental: Platelet rich plasma (PRP) which contains 6.5-7.5×10^8 platelet/ml was prepared from rabbit blood. To the 200 μl of PRP, 5 μl of calcium chloride (1mM) and 50 μl of pH 7.4 Tris-acetate solution (5 mM) containing 120mM NaCl and test compound was added successively, and then stirred for 2 min. at 37° C. To the solution 5 μl of adenosine diphosphate (ADP) (2.5 μM) or collagen (2.5 μg/ml) was added as an aggregation inducer. Aggregation was measured by using an aggregometer (NKK HEMA TRACER 1).

Compound: CC1CC(=O)NN=C1c1ccc2sc(=O)n(C)c2c1 (centres unmarked) [test compound .circle.1, 3-Methyl-5-(4-methyl-6-oxo-1,4,5,6-tetrahydro-3-pyridazinyl)benzothiazolone]
- Effect Max (mean ratio of maximum decrease of blood pressure) [1]: 63%

Compound: CCOC(=O)Cn1c(=O)sc2ccc(C3=NNC(=O)CC3C)cc21 (centres unmarked) [test compound .circle.2, 3-Ethoxycarbonylmethyl-5-(4-methyl-6-oxo-1,4,5,6-tetrahydro-3-pyridazinyl)benzothiazolone]
- H.R.C. (percentage of heart rate changes) [2]: 22%
- dp/dt M.C. (percentage of dp/dt max changes) [2]: 63%

Compound: CC1CC(=O)NN=C1c1ccc2sc(=O)[nH]c2c1 (centres unmarked) [test compound .circle.3, 5-(4-Methyl-6-oxo-1,4,5,6-tetrahydro-3-pyridazinyl)benzothiazolone]
- IC50 ([3]; inducer ADP (2.5 μM), read-out: ID50, ADP): 61 nM
- IC50 ([3]; inducer collagen (2.5 μg/ml), read-out: ID50, Collagen): 35 nM
